Where two headings read alike, the source gives them in different places.
Key:
[1] = system: T1, V-H+-PPase; settings: PPi 0.005-[…], […] MgCl2, 100 mM KCl, MOPS-TRIS pH 7.0, 22 °C, corrected for vesicle orientation
T1 construct: gene VHP1
Method: PPi-dependent H+ transport, ACMA fluorescence quenching, Michaelis-Menten fit on V-H+-PPase | Kinetic analysis was performed by fitting a Michaelis–Menten curve through the data points

[2] = system: T2, V-H+-ATPase; settings: ATP 0.05-1.5 mM, […] MgCl2, 100 mM KCl, MOPS-TRIS pH 7.0, 22 °C; control plants (10 mM NaCl); corrected for vesicle orientation
T2 construct: gene VHA-A
Method: ATP-dependent H+ transport, ACMA fluorescence quenching, Michaelis-Menten fit on V-H+-ATPase | Kinetic analysis was performed by fitting a Michaelis–Menten curve through the data points

## O=P(O)(O)OP(=O)(O)O [pyrophosphate]
[1]; control plants (0 mM NaCl)
  Km: 43 ± 24 µM
[1]; control plants (10 mM NaCl)
  Km: 34 ± 14 µM

## Nc1ncnc2c1ncn2[C@@H]1O[C@H](COP(=O)(O)OP(=O)(O)OP(=O)(O)O)[C@@H](O)[C@H]1O [ATP]
[2]
  Km: 250 ± 110 µM
